Assay results reported in patent US9340600B2 (Indiana University Research and Technology Corporation, priority 2012, dated 2016).
*1 amine or outer side, *2 acyl side, *3 side chain or, on linkers, in order; H or OH if unused. Where a SMILES comes first, the peptide text is derived from it. Side-chain parts run from the residue outwards. [ ]: non-standard residue; d: D form. The star is where a group is joined. γGlu = O=C(O)[C@H](CCC(=O)[*:2])N[*:1]; Palmitoyl = CCCCCCCCCCCCCCCC(=O)*; Orn = NCCC[C@H](N)C(=O)O; Nva = CCC[C@H](N)C(=O)O; Aib = CC(C)(N)C(=O)O

Columns and labels:
Type in all cases: cell-based
glucagon receptor = target: T1, glucagon receptor (Homo sapiens, UniProt P47871); assay: cAMP induction, firefly luciferase-based reporter assay in HEK293 cells co-transfected with glucagon receptor; conditions: for EC50: EC50 at Glucagon Receptor
T1 construct: expressed in transfected cells; host or cells: HEK293
T1 sequence (P47871 26-477): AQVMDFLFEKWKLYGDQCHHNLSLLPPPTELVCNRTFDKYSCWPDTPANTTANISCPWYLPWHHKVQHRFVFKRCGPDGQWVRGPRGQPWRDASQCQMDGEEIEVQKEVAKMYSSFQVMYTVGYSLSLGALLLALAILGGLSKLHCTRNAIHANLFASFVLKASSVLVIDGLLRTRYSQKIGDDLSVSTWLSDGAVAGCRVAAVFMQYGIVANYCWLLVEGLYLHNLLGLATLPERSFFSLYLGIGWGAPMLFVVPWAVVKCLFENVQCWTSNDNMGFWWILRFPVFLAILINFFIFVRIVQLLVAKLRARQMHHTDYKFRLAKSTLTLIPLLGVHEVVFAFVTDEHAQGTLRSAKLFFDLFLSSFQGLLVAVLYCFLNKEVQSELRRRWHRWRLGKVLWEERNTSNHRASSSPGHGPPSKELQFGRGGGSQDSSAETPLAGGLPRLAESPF
Description: (§1) This example describes an exemplary method of testing the biological activity of the peptides of the present disclosures, which method involves assaying cAMP synthesis.

GLP-1 receptor = target: T2, GLP-1 receptor (Homo sapiens, UniProt P43220); assay: cAMP induction, firefly luciferase-based reporter assay in HEK293 cells co-transfected with GLP-1 receptor; conditions: EC50 at GLP-1 Receptor
T2 construct: expressed in transfected cells; host or cells: HEK293
T2 sequence (P43220 24-463): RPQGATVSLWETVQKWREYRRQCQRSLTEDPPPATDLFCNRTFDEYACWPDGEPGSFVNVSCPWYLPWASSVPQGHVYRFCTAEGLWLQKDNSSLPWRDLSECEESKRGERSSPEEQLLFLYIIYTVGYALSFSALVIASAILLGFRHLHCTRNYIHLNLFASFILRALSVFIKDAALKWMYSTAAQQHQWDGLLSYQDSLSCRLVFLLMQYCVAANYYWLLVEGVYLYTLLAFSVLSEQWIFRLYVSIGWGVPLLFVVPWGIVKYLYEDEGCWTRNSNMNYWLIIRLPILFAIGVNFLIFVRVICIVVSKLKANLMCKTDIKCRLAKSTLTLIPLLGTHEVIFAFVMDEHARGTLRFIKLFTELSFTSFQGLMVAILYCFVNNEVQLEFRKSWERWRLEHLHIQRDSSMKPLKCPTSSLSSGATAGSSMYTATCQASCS
Description: as §1

GIP receptor = target: T3, GIP receptor (Homo sapiens, UniProt P48546); assay: cAMP induction, firefly luciferase-based reporter assay in HEK293 cells co-transfected with GIP receptor; conditions: EC50 at GIP Receptor
T3 construct: expressed in transfected cells; host or cells: HEK293
T3 sequence (P48546 22-466): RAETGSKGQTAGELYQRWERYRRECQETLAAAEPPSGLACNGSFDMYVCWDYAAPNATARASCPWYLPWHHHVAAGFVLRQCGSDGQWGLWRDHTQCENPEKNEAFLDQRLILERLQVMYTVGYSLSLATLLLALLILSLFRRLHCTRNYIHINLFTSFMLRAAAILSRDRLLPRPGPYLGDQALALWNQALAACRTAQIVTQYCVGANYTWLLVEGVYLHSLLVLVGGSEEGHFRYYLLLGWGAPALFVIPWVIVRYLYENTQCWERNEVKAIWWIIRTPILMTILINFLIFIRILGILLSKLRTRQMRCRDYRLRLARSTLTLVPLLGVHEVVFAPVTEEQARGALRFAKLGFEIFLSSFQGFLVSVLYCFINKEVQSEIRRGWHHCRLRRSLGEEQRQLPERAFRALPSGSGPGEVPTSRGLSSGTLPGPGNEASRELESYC
Description: as §1

[1] = Table 2, analogs of SEQ ID NO: 18 varying at positions 16-21
[2] = Table 3, analogs of SEQ ID NO: 18 varying at position 3
[3] = Table 5, analogs of SEQ ID NO: 10

Compound	EC50 (glucagon receptor; [1]) [nM]	EC50 (GLP-1 receptor; [1]) [nM]	EC50 (GIP receptor; [1]) [nM]	EC50 (glucagon receptor; [2]) [nM]	EC50 (GLP-1 receptor; [2]) [nM]	EC50 (GIP receptor; [2]) [nM]	further results
CCCCCCCCCCCCCCCC(=O)N[C@@H](CCC(=O)NCCCC[C@H](NC(=O)[C@H](CC(=O)O)NC(=O)[C@H](CO)NC(=O)[C@@H](NC(=O)[C@H](Cc1ccccc1)NC(=O)[C@@H](NC(=O)CNC(=O)[C@H](CCC(N)=O)NC(=O)C(C)(C)NC(=O)[C@@H](N)Cc1c[nH]cn1)[C@@H](C)O)[C@@H](C)O)C(=O)N[C@@H](CO)C(=O)N[C@@H](CCCCN)C(=O)N[C@@H](Cc1ccc(O)cc1)C(=O)N[C@@H](CC(C)C)C(=O)N[C@@H](CC(=O)O)C(=O)N[C@@H](CCC(=O)O)C(=O)N[C@@H](CCCNC(=N)N)C(=O)N[C@@H](C)C(=O)N[C@@H](C)C(=O)N[C@@H](CCCCN)C(=O)N[C@@H](CC(=O)O)C(=O)N[C@@H](Cc1ccccc1)C(=O)N[C@H](C(=O)N[C@@H](CCC(N)=O)C(=O)N[C@@H](Cc1c[nH]c2ccccc12)C(=O)N[C@@H](CC(C)C)C(=O)N[C@@H](CC(C)C)C(=O)N[C@@H](CC(=O)O)C(=O)NCC(=O)NCC(=O)N1CCC[C@H]1C(=O)N[C@@H](CO)C(=O)N[C@@H](CO)C(=O)NCC(=O)N[C@@H](C)C(=O)N1CCC[C@H]1C(=O)N1CCC[C@H]1C(=O)N1CCC[C@H]1C(=O)N[C@@H](CO)C(N)=O)C(C)C)C(=O)O [compound 20] (H-H[Aib]QGTFTSDK([γGlu-Palmitoyl])SKYLDERAAKDFVQWLLDGGPSSGAPPPS-NH2; N-terminus assumed)	0.006	0.01	0.005				
CCCCCCCCCCCCCCCC(=O)N[C@@H](CCC(=O)NCCCC[C@H](NC(=O)[C@H](CC(=O)O)NC(=O)[C@H](CO)NC(=O)[C@@H](NC(=O)[C@H](Cc1ccccc1)NC(=O)[C@@H](NC(=O)CNC(=O)[C@H](CCC(N)=O)NC(=O)C(C)(C)NC(=O)[C@@H](N)Cc1c[nH]cn1)[C@@H](C)O)[C@@H](C)O)C(=O)N[C@@H](CO)C(=O)N[C@@H](CCCCN)C(=O)N[C@@H](Cc1ccc(O)cc1)C(=O)N[C@@H](CC(C)C)C(=O)N[C@@H](CC(=O)O)C(=O)N[C@@H](CCC(=O)O)C(=O)N[C@@H](CCCNC(=N)N)C(=O)N[C@@H](C)C(=O)NC(C)(C)C(=O)N[C@@H](C)C(=O)N[C@@H](CCC(=O)O)C(=O)N[C@@H](Cc1ccccc1)C(=O)N[C@H](C(=O)N[C@@H](CCC(N)=O)C(=O)N[C@@H](Cc1c[nH]c2ccccc12)C(=O)N[C@@H](CC(C)C)C(=O)N[C@@H](CC(C)C)C(=O)N[C@@H](CC(=O)O)C(=O)NCC(=O)NCC(=O)N1CCC[C@H]1C(=O)N[C@@H](CO)C(=O)N[C@@H](CO)C(=O)NCC(=O)N[C@@H](C)C(=O)N1CCC[C@H]1C(=O)N1CCC[C@H]1C(=O)N1CCC[C@H]1C(=O)N[C@@H](CO)C(N)=O)C(C)C)C(=O)O [compound 23] (H-H[Aib]QGTFTSDK([γGlu-Palmitoyl])SKYLDERA[Aib]AEFVQWLLDGGPSSGAPPPS-NH2)	0.261	0.007	0.013				
CCCCCCCCCCCCCCCC(=O)N[C@@H](CCC(=O)NCCCC[C@H](NC(=O)[C@H](CC(=O)O)NC(=O)[C@H](CO)NC(=O)[C@@H](NC(=O)[C@H](Cc1ccccc1)NC(=O)[C@@H](NC(=O)CNC(=O)[C@H](CCCNC(C)=O)NC(=O)C(C)(C)NC(=O)[C@@H](N)Cc1c[nH]cn1)[C@@H](C)O)[C@@H](C)O)C(=O)N[C@@H](CO)C(=O)N[C@@H](CCCCN)C(=O)N[C@@H](Cc1ccc(O)cc1)C(=O)N[C@@H](CC(C)C)C(=O)N[C@@H](CCC(=O)O)C(=O)N[C@@H](CCC(=O)O)C(=O)N[C@@H](CCCNC(=N)N)C(=O)N[C@@H](C)C(=O)N[C@@H](C)C(=O)N[C@@H](CCC(N)=O)C(=O)N[C@@H](CCC(=O)O)C(=O)N[C@@H](Cc1ccccc1)C(=O)N[C@H](C(=O)N[C@@H](CCC(N)=O)C(=O)N[C@@H](Cc1c[nH]c2ccccc12)C(=O)N[C@@H](CC(C)C)C(=O)N[C@@H](CC(C)C)C(=O)N[C@@H](CCC(=O)O)C(=O)NCC(=O)NCC(=O)N1CCC[C@H]1C(=O)N[C@@H](CO)C(=O)N[C@@H](CO)C(=O)NCC(=O)N[C@@H](C)C(=O)N1CCC[C@H]1C(=O)N1CCC[C@H]1C(=O)N1CCC[C@H]1C(=O)N[C@@H](CO)C(N)=O)C(C)C)C(=O)O [compound 34] (H-H[Aib][Orn](Ac)GTFTSDK([γGlu-Palmitoyl])SKYLEERAAQEFVQWLLEGGPSSGAPPPS-NH2; N-terminus assumed)				0.368	0.001	0.02	
CCCCCCCCCCCCCCCC(=O)N[C@@H](CCC(=O)NCCCC[C@H](NC(=O)[C@H](CC(=O)O)NC(=O)[C@H](CO)NC(=O)[C@@H](NC(=O)[C@H](Cc1ccccc1)NC(=O)[C@@H](NC(=O)CNC(=O)[C@H](CC(C)C)NC(=O)C(C)(C)NC(=O)[C@@H](N)Cc1c[nH]cn1)[C@@H](C)O)[C@@H](C)O)C(=O)N[C@@H](CO)C(=O)N[C@@H](CCCCN)C(=O)N[C@@H](Cc1ccc(O)cc1)C(=O)N[C@@H](CC(C)C)C(=O)N[C@@H](CCC(=O)O)C(=O)N[C@@H](CCC(=O)O)C(=O)N[C@@H](CCCNC(=N)N)C(=O)N[C@@H](C)C(=O)N[C@@H](C)C(=O)N[C@@H](CCC(N)=O)C(=O)N[C@@H](CCC(=O)O)C(=O)N[C@@H](Cc1ccccc1)C(=O)N[C@H](C(=O)N[C@@H](CCC(N)=O)C(=O)N[C@@H](Cc1c[nH]c2ccccc12)C(=O)N[C@@H](CC(C)C)C(=O)N[C@@H](CC(C)C)C(=O)N[C@@H](CCC(=O)O)C(=O)NCC(=O)NCC(=O)N1CCC[C@H]1C(=O)N[C@@H](CO)C(=O)N[C@@H](CO)C(=O)NCC(=O)N[C@@H](C)C(=O)N1CCC[C@H]1C(=O)N1CCC[C@H]1C(=O)N1CCC[C@H]1C(=O)N[C@@H](CO)C(N)=O)C(C)C)C(=O)O [compound 32] (H-H[Aib]LGTFTSDK([γGlu-Palmitoyl])SKYLEERAAQEFVQWLLEGGPSSGAPPPS-NH2)					0.388	0.73	EC50 at Glucagon Receptor (glucagon receptor; [2]): Not active
CCCCCCCCCCCCCCCC(=O)N[C@@H](CCC(=O)NCCCC[C@H](NC(=O)[C@H](CC(=O)O)NC(=O)[C@H](CO)NC(=O)[C@@H](NC(=O)[C@H](Cc1ccccc1)NC(=O)[C@@H](NC(=O)CNC(=O)[C@H](CCC(N)=O)NC(=O)C(C)(C)NC(=O)[C@@H](N)Cc1c[nH]cn1)[C@@H](C)O)[C@@H](C)O)C(=O)N[C@@H](CO)C(=O)N[C@@H](CCCCN)C(=O)N[C@@H](Cc1ccc(O)cc1)C(=O)N[C@@H](CC(C)C)C(=O)N[C@@H](CC(=O)O)C(=O)N[C@@H](CCC(=O)O)C(=O)N[C@@H](CCCNC(=N)N)C(=O)N[C@@H](C)C(=O)N[C@@H](C)C(=O)N[C@@H](CCC(N)=O)C(=O)N[C@@H](CC(=O)O)C(=O)N[C@@H](Cc1ccccc1)C(=O)N[C@H](C(=O)N[C@@H](CCC(N)=O)C(=O)N[C@@H](Cc1c[nH]c2ccccc12)C(=O)N[C@@H](CC(C)C)C(=O)N[C@@H](CC(C)C)C(=O)N[C@@H](CC(=O)O)C(=O)N[C@@H](C)C(=O)NCC(=O)N1CCC[C@H]1C(=O)N[C@@H](CO)C(=O)N[C@@H](CO)C(=O)NCC(=O)N[C@@H](C)C(=O)N1CCC[C@H]1C(=O)N1CCC[C@H]1C(=O)N1CCC[C@H]1C(=O)N[C@@H](CO)C(N)=O)C(C)C)C(=O)O [compound 64] (H-H[Aib]QGTFTSDK([γGlu-Palmitoyl])SKYLDERAAQDFVQWLLDAGPSSGAPPPS-NH2)							EC50 (glucagon receptor; [3]): 0.002 nM; EC50 (GLP-1 receptor; [3]): 0.003 nM; EC50 (GIP receptor; [3]): 0.019 nM
CCCCCCCCCCCCCCCC(=O)N[C@@H](CCC(=O)NCCCC[C@H](NC(=O)[C@H](CC(=O)O)NC(=O)[C@H](CO)NC(=O)[C@@H](NC(=O)[C@H](Cc1ccccc1)NC(=O)[C@@H](NC(=O)CNC(=O)[C@H](CCC)NC(=O)C(C)(C)NC(=O)[C@@H](N)Cc1c[nH]cn1)[C@@H](C)O)[C@@H](C)O)C(=O)N[C@@H](CO)C(=O)N[C@@H](CCCCN)C(=O)N[C@@H](Cc1ccc(O)cc1)C(=O)N[C@@H](CC(C)C)C(=O)N[C@@H](CCC(=O)O)C(=O)N[C@@H](CCC(=O)O)C(=O)N[C@@H](CCCNC(=N)N)C(=O)N[C@@H](C)C(=O)N[C@@H](C)C(=O)N[C@@H](CCC(N)=O)C(=O)N[C@@H](CCC(=O)O)C(=O)N[C@@H](Cc1ccccc1)C(=O)N[C@H](C(=O)N[C@@H](CCC(N)=O)C(=O)N[C@@H](Cc1c[nH]c2ccccc12)C(=O)N[C@@H](CC(C)C)C(=O)N[C@@H](CC(C)C)C(=O)N[C@@H](CCC(=O)O)C(=O)NCC(=O)NCC(=O)N1CCC[C@H]1C(=O)N[C@@H](CO)C(=O)N[C@@H](CO)C(=O)NCC(=O)N[C@@H](C)C(=O)N1CCC[C@H]1C(=O)N1CCC[C@H]1C(=O)N1CCC[C@H]1C(=O)N[C@@H](CO)C(N)=O)C(C)C)C(=O)O [compound 38] (H-H[Aib][Nva]GTFTSDK([γGlu-Palmitoyl])SKYLEERAAQEFVQWLLEGGPSSGAPPPS-NH2; N-terminus assumed)				0.055	0.002	0.004	
